Measured values as given in ChEMBL document CHEMBL2169811, “Oncoepigenomics: making histone lysine methylation count” (Eur J Med Chem, 2012).
Blank lines part the entries; values can stand above or below the compound they belong to.

Key:
[1] = target: T1, Lysine-specific demethylase 4E (Homo sapiens, UniProt B2RXH2)
T1 sequence (B2RXH2 whole entry): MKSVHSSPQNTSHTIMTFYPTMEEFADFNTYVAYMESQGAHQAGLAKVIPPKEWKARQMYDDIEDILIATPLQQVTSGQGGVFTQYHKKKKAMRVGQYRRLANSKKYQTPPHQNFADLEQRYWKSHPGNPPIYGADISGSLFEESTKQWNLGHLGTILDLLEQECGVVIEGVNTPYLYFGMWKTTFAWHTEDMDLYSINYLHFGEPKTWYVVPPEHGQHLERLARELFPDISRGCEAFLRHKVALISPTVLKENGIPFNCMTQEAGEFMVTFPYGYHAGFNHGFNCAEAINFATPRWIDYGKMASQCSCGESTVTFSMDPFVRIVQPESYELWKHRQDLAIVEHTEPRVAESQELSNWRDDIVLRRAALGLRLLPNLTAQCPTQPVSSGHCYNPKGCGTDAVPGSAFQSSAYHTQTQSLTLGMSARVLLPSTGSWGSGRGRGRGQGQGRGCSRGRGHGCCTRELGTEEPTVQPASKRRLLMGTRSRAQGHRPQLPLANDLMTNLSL
Description: Inhibition of JMJD2E catalytic domain by mass spectrophotometric analysis

[2] = target: Lysine-specific histone demethylase 1A (Homo sapiens, UniProt O60341)
Description: Inhibition of full length N-terminal 6x His-tagged human LSD1 expressed in Escherichia coli BL21 (DE3) using H3K4me2 peptide as substrate by luminol dependent chemiluminescence assay

PC-3 = assay: Growth inhibition of human PC3 cells after 48 hrs by MTT assay; type: functional; conditions: PC-3, 48 h
HCT-116 [3] = assay: Growth inhibition of human HCT116 cells after 48 hrs by MTT assay; type: functional; conditions: HCT-116, 48 h
[4] = Growth inhibition of human KYSE-150 cells after 48 hrs by MTT assay; type: functional; conditions: KYSE-150, 48 h
HeLa = assay: Growth inhibition of human HeLa cells after 48 hrs by MTT assay; type: functional
SH-SY5Y = assay: Growth inhibition of human SH-SY5Y cells after 48 hrs by MTT assay; type: functional
[5] = target: T2, Histone-lysine N-methyltransferase EHMT2 (Homo sapiens, UniProt Q96KQ7); assay: Inhibition of G9a
T2 sequence (Q96KQ7 whole entry): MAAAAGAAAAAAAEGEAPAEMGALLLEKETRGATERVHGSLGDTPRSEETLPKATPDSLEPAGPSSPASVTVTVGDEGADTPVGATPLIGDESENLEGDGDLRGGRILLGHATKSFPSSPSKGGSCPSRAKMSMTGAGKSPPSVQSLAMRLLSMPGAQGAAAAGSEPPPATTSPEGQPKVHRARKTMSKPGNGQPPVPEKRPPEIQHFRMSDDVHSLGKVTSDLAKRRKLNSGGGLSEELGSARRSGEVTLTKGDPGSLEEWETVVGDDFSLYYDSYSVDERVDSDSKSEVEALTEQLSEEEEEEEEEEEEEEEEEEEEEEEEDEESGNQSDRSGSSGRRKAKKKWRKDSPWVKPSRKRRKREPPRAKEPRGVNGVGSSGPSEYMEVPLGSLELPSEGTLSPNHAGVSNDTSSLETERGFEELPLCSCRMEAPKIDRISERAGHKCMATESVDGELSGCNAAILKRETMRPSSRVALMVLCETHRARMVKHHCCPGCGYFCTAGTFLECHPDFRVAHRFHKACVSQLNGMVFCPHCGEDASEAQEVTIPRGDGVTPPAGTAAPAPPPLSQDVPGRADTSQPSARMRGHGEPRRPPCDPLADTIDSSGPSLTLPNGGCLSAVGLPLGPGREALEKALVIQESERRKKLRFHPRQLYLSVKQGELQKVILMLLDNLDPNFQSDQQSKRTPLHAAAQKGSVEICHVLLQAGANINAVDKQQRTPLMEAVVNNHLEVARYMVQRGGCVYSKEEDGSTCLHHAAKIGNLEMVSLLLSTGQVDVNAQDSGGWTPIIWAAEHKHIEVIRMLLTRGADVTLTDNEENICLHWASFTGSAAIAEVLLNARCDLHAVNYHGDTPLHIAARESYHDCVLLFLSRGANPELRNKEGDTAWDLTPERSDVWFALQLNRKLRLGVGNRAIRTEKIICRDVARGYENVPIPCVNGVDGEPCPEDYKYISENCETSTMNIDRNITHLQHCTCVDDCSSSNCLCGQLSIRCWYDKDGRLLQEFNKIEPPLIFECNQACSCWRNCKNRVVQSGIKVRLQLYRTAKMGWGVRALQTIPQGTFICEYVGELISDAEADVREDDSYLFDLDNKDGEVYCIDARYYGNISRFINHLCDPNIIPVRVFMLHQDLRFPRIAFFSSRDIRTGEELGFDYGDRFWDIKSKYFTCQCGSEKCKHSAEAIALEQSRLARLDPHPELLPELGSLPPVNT

[6] = target: T3, Histone-lysine N-methyltransferase SUV39H1 (Homo sapiens, UniProt O43463)
T3 sequence (O43463 whole entry): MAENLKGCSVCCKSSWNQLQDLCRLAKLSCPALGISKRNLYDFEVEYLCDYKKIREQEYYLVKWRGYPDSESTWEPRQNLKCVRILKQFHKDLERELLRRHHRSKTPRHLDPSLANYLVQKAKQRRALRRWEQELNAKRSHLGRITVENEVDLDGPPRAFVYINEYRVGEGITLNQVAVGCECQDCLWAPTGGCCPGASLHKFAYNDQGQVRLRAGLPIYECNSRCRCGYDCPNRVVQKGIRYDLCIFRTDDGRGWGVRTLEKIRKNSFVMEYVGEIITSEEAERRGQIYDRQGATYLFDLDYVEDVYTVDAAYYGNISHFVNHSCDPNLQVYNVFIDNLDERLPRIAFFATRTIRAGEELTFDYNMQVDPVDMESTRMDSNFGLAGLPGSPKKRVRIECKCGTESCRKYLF

[7] = target: T2, Histone-lysine N-methyltransferase EHMT2
Description: Inhibition of GST-tagged G9a after 1 hr by radioactive filter-binding assay

RKO = assay: Growth inhibition of human RKO cells expressing p53 after 24 to 48 hrs by MTT assay; type: functional
HCT-116 [8] = assay: Growth inhibition of human HCT116 cells after 24 to 48 hrs by MTT assay; type: functional
[9] = target: Protein arginine N-methyltransferase 1 (Homo sapiens, UniProt Q99873)
Description: Inhibition of PRMT1 using [3H]-SAM as substrate preincubated for 10 mins before substrate addition measured after 30 mins by scintillation counter

[10] = target: T2, Histone-lysine N-methyltransferase EHMT2; assay: Inhibition of G9a using [3H]-SAM as substrate preincubated for 10 mins before substrate addition measured after 30 mins by scintillation counter
[11] = target: T3, Histone-lysine N-methyltransferase SUV39H1; assay: Inhibition of SUV39H1 using [3H]-SAM as substrate preincubated for 10 mins before substrate addition measured after 30 mins by scintillation counter
[12] = target: T4, Histone-arginine methyltransferase CARM1 (Homo sapiens, UniProt Q86X55)
T4 sequence (Q86X55 whole entry): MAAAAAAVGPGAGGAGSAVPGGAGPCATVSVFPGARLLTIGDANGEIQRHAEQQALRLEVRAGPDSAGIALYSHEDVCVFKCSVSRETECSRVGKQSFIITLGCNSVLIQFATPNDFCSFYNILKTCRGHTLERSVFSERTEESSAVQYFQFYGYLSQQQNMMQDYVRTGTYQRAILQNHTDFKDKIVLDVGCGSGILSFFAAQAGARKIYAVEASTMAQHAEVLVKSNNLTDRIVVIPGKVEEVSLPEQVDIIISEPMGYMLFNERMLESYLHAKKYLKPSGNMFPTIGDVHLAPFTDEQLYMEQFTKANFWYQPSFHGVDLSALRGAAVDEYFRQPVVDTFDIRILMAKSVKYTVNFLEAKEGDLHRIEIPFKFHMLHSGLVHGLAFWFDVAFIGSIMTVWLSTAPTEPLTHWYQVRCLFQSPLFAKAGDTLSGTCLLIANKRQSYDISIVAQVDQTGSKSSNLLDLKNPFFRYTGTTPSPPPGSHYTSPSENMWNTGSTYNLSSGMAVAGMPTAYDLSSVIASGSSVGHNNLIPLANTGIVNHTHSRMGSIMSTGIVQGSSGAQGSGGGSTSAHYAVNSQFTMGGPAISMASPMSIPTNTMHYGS
Description: Inhibition of human CARM1 expressed in Escherichia coli BL21 (DE3) using [3H]-SAM as substrate preincubated for 10 mins before substrate addition measured after 30 mins by scintillation counter

[13] = target: T1, Lysine-specific demethylase 4E; assay: Inhibition of JMJD2E
[14] = target: T1, Lysine-specific demethylase 4E; assay: Inhibition of human JMJD2E
Homo sapiens [15] = species on record: Homo sapiens; assay: Selectivity ratio of IC50 for GLP to IC50 for human SMYD2
[16] = target: T5, N-lysine methyltransferase SMYD2 (Homo sapiens, UniProt Q9NRG4); assay: Inhibition of full length human SMYD2 amino acid 1 to 433 expressed in Escherichia coli BL21 (DE3) using Biotinaminohexanoyl- GSRAHSSHLKSKKGQSTSRH as substrate after 75 mins by AlphaScreen assay
Homo sapiens [17] = species on record: Homo sapiens; assay: Selectivity ratio of IC50 for G9a to IC50 for human SMYD2
Homo sapiens [18] = species on record: Homo sapiens; assay: Selectivity ratio of IC50 for SMYD3 to IC50 for human SMYD2
Homo sapiens [19] = species on record: Homo sapiens; assay: Selectivity ratio of IC50 for EZH2 to IC50 for human SMYD2
Homo sapiens [20] = species on record: Homo sapiens; assay: Selectivity ratio of IC50 for DOT1L to IC50 for human SMYD2
Homo sapiens [21] = species on record: Homo sapiens; assay: Selectivity ratio of IC50 for SET7/9 to IC50 for human SMYD2
[22] = target: T5, N-lysine methyltransferase SMYD2; assay: Competitive binding affinity to full length human SMYD2 amino acid 1 to 433 expressed in Escherichia coli BL21 (DE3) after 90 mins by radioactive filter-binding assay in presence of P53 peptide

T5 sequence (Q9NRG4 whole entry): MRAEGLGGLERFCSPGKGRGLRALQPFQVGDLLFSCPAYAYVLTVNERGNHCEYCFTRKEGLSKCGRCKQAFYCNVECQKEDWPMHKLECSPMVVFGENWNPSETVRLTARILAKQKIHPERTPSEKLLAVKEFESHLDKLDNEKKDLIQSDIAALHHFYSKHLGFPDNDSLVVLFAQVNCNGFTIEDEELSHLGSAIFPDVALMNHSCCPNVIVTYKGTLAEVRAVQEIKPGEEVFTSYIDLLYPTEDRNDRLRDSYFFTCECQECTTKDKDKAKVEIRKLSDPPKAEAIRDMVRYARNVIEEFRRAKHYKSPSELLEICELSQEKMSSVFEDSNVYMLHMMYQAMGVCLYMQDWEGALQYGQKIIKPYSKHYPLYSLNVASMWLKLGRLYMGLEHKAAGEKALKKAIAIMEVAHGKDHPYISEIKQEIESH
Protein arginine N-methyltransferase 1, sequence (Q99873 whole entry): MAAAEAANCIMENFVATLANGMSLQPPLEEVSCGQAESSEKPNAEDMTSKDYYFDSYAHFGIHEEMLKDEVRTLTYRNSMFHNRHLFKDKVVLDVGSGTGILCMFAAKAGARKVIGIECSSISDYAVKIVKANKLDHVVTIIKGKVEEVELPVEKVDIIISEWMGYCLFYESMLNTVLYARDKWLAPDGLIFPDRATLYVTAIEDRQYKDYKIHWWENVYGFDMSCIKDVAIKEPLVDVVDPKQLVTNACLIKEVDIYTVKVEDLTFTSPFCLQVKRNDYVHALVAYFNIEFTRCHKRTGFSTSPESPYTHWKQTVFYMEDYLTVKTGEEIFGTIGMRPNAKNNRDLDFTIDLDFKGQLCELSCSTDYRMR

Compound: NCCNC(=O)c1ccnc(-c2cc(C(=O)O)ccn2)c1
IC50 [1]: 0.18 µM

Compound: CN1C(=O)[C@]23CC4=CC=C[C@H](O)[C@H]4N2C(=O)[C@@]1(CO)SS3 [GLIOTOXIN]
IC50 [5]: 0.53 µM
IC50 [6]: 0.26 µM

Compound: O=C(O)c1ccnc(-c2cc(C(=O)NCCc3ccccc3)ccn2)c1
IC50 [1]: 0.11 µM

Compound: CCNCCCCNCCCCNCCCCNCCCCNC/C=C\CNCCCCNCCCCNCCCCNCCCCNCC
GI50 (RKO): 2.5 µM
GI50 (HCT-116 [8]): 2.5 µM

Compound: N[C@@H](CCCN(CCI)C[C@H]1O[C@@H](n2cnc3c(NCc4ccccc4)ncnc32)[C@H](O)[C@@H]1O)C(=O)O
IC50 [9]: > 100 µM
IC50 [10]: > 100 µM
IC50 [11]: > 100 µM
IC50 [12]: > 100 µM

Compound: CS[C@]1(CO)C(=O)N2[C@H]3C(=CC=C[C@@H]3OC(C)=O)C[C@@]2(SC)C(=O)N1C
IC50 [5]: > 10 µM
IC50 [6]: > 10 µM

Compound: CNc1ncnc2c1ncn2[C@@H]1O[C@H](CN(CCI)CCC[C@H](N)C(=O)O)[C@@H](O)[C@H]1O
IC50 [10]: > 100 µM
IC50 [11]: > 100 µM
IC50 [12]: > 100 µM

Compound: CN1C(=O)[C@@]23C[C@]4([C@]56C[C@@]78SS[C@@](C)(C(=O)N7[C@H]5Nc5ccccc56)N(C)C8=O)c5ccccc5N[C@@H]4N2C(=O)[C@]1(C)SS3
IC50 [5]: 0.63 µM
IC50 [6]: 0.53 µM

Compound: CN1C(=O)[C@]23C[C@@]4([C@@]56C[C@]78SS[C@](CO)(C(=O)N7[C@@H]5Nc5ccccc56)N(C)C8=O)c5ccccc5N[C@H]4N2C(=O)[C@@]1(CO)SS3
IC50 [7]: 1.7 µM

Now from value to compound, other results behind:

IC50 [2]: 0.5 µM
Compound: C/N=C(\NC)NCCCNCCCNCCCN/C(=N/C)NC

GI50 (PC-3): 6 µM
GI50 (HCT-116 [3]): 6 µM
GI50 (HeLa): 6 µM
GI50 (SH-SY5Y): 6 µM
Compound: N[C@@H]1C[C@H]1c1ccc(OCC[C@H](NC(=O)c2ccccc2)C(=O)NCc2ccccc2)cc1
GI50 [4]: 6 µM

IC50 [7]: > 50 µM
Compound: CN1C(=O)[C@H]2C[C@]3([C@]45C[C@@H]6C(=O)N(C)[C@H](CO)C(=O)N6[C@H]4Nc4ccccc45)c4ccccc4N[C@@H]3N2C(=O)[C@H]1CO

IC50 [13]: 5.9 µM
Compound: O=C(O)/C=C/C(=O)N(O)CCCCNCc1ccc(COC(=O)Nc2cccc3ccccc23)cc1
GI50 [4]: 5.1 µM

GI50 (PC-3): 6 µM
GI50 (HCT-116 [3]): 6 µM
GI50 (HeLa): 6 µM
GI50 (SH-SY5Y): 6 µM
Compound: NC1CC1c1cccc(OCC[C@H](NC(=O)c2ccccc2)C(=O)NCc2ccccc2)c1 (stereo partly drawn)
GI50 [4]: 6 µM

IC50 [14]: 2.5 µM
Compound: O=C(O)c1ccnc(C(=O)O)c1Nc1ccccc1F

Ratio IC50 (Homo sapiens [15]): 700
IC50 [16]: 0.12 µM
Ratio IC50 (Homo sapiens [17]): 700
Ratio IC50 (Homo sapiens [18]): 700
Ratio IC50 (Homo sapiens [19]): 700
Ratio IC50 (Homo sapiens [20]): 700
Ratio IC50 (Homo sapiens [21]): 700
Ki [22]: 0.3 µM
Compound: O=C1COc2c(CCNCCN(C(=O)CCNCCc3ccc(Cl)c(Cl)c3)C3CCCCC3)ccc(O)c2N1

GI50 (HCT-116 [8]): 2.5 µM
Compound: CCNCCCCNCCCCNCCCCNCCCCNC/C=C/CNCCCCNCCCCNCCCCNCCCCNCC
GI50 (RKO): 2.5 µM
